The values that follow come from patent publication US20180251483A1, “THIOCYANATE SALTS FOR ANTI-INFLAMMATION” (National Jewish Health, priority 2015, published 2018).

The subject of assay [1] is rat brain homogenates. Put plainly: Iron/ascorbate-initiated lipid peroxidation of rat brain homogenates, TBARS assay. Format: biochemical. The note with it: comparison of the two salts. The method, then:
Legend: Cmpd 10150-Cl (circles); Cmpd 10150-SCN (boxes).
The ability of the salts of the invention to inhibit lipid peroxidation was assessed as described by Ohkawa et al. (Anal. Biochem. 95:351 (1979)) and Yue et al. (J. Pharmacol. Exp. Ther. 263:92 (1992)). Iron and ascorbate can be used to initiate lipid peroxidation in tissue homogenates and the formation of thiobarbituric acid reactive species (TBARS) measured. Lipid peroxidation causes cell damage by radicals, which destroys lipids in cell membranes resulting in oxidative and inflammatory injury.
Both the chloride and thiocyanate salts of 10150 have similar lipid peroxide inhibition. Lipid peroxidation of rat brain homogenates was initiated with iron/ascorbate in the presence or absence of various concentrations of 10150-Cl or 10150-SCN. Lipid peroxidation was quantified using the TBARS assay with malondialdehyde standards. The data was normalized and curve fitted to determine the inhibitory concentrations that decreased lipid peroxidation by one-half (IC50).

Assay [2] is described as follows: Catalase activity: H2O2 consumption followed with a hydrogen peroxide selective electrode. In kind it is biochemical. The method, then: FIG. 4 is a line graph showing effects of 1 mM NaSCN on the consumption of H2O2 by 10150-Cl at a fixed concentration of 12.5 μM and various H2O2 concentrations. Legend: Cmpd 10150-Cl (circles); Cmpd 10150-Cl+SCN (1 mM) (triangles).
To test whether SCN was acting as a competing substrate in the catalase activity one examined the change in 10150-Cl catalase activity by following the disappearance of H2O2 over time with a H2O2 selective electrode in the presence or absence of 1 mM NaSCN.
Experimental Conditions: Effects of 1 mM NaSCN on the consumption of H2O2 by 10150-Cl was investigated at a fixed concentration of 12.5 μM and various H2O2 concentrations. H2O2 consumption was followed over time with a hydrogen peroxide selective electrode (HPO) using a free radical analyzer (WPI). Changes in pA were converted to H2O2 using a 5 point H2O2 standard curve. The data was fitted as a linear curve using Prizm software. The rate constant for 10150-Cl was 0.09±0.004 min^−1 and in the presence of 1 mM NaSCN was decreased to 0.02±0.004 min^−1.

Assay [3] is described as follows: Oxygen formation from H2O2 followed with an oxygen selective electrode (catalase to haloperoxidase conversion). Format: biochemical. The method, then:
FIG. 5 is a bar graph showing the inhibition of oxygen formation by 10150-Cl in the presence of hydrogen peroxide and thiocyanate. Bins (left to right); 25 uM Cmpd 10150; 50 uM Cmpd 10150. Legend: control (open); SCN 1 mM (closed).
It was examined whether SCN was being utilized as a substrate in a peroxidase reaction by looking at the inhibition of oxygen formation. If 10150-Cl was utilizing SCN along with H2O2, then no oxygen would be generated (see Eq 2).
To examine the rate of oxygen formation in the presence of 10150-Cl, H2O2 in the presence or absence of NaSCN, one utilized an oxygen selective electrode with a free radical analyzer (WPI). Changes in pA were converted to O2 using the difference of the O2 concentration in a saturated solution minus that of the solution made anaerobic by the addition of dithionite.
Experimental Conditions: Conversion of catalase activity to haloperoxidase activity of 10150-Cl with the addition of thiocyanate (SCN). Oxygen formation was followed with an oxygen selective electrode in a reaction mixture containing 10150 at either 25 or 50 μM and 1 mM H2O2 in the presence or absence of 1 mM SCN.

For assay [4] the following is noted: stated as known; cited from earlier work.
Assay [5] concerns Human bronchial epithelial cells (HBE). Put plainly: Hypochlorite-induced injury of human bronchial epithelial cells, MTT viability assay. Format: cell-based. The note with it: 250 μM HOCl for 30 minutes, 10 μM compound, MTT 24 hours post exposure, compared to 10150-Cl or NaSCN. The method, then: Bins (left to right): PBS (phosphate buffered saline); 250 uM HOCl; 250 uM HOCl+10 uM 10150-Cl; 250 uM HOCL+10 uM 10150-SCN; 250 uM HOCL+10 uM NaSCN.
Human bronchial epithelial cells (HBE) were exposed to 250 μM of hypochlorite (HOCl) for 30 minutes in the presence or absence of 10 μM of 10150-Cl, 10150-SCN, or NaSCN and cell injury was assessed 24 hours post HOCl exposure using the MTT viability assay.
On the technique in general: Formazan colour is commonly taken as a measure of viable cells.

For `CCN1C=CN(CC)C1=C1C2=NC(=C(c3n(CC)cc[n+]3CC)C3=NC(=C(c4n(CC)cc[n+]4CC)c4ccc([n-]4)C(c4n(CC)cc[n+]4CC)=C4C=CC1=N4)C=C3)C=C2.[Cl-].[Cl-].[Cl-].[Cl-].[Cl-].[Mn+3]` [10150-Cl, [5,10,15,20 tetrakis(1,3-diethylmidazolium-2-yl)porphyrinato] manganese (III) pentachloride], the “IC50 of lipid peroxidation (TBARS formation)” value in assay [1] was “not statistically different”. In addition, the “rate constant of H2O2 consumption in the presence of 1 mM NaSCN” value in assay [2] (12.5 μM compound, various H2O2 concentrations, 1 mM NaSCN) is 0.02 ± 0.004 min⁻¹. Besides, the “rate constant of H2O2 consumption” value in assay [2] (12.5 μM compound, various H2O2 concentrations, absence of NaSCN) is 0.09 ± 0.004 min⁻¹. Moreover, the “oxygen formation on addition of SCN” value in assay [3] (10150 at 25 or 50 μM, 1 mM H2O2, presence vs absence of 1 mM SCN) is listed as “dramatically inhibited the formation of oxygen”. Further, the haloperoxidase activity result in assay [3] (thiocyanate as substrate, generating HOSCN) was “has haloperoxidase activity”. In assay [4], the “catalase activity (dismutation of hydrogen peroxide into oxygen and water)” value is “known to possess catalase activity”.

On to “[5,10,15,20 tetrakis(1,3-diethylimidazolium-2-yl)porphyrinato] manganese (III) pentathiocyanate [10150-SCN]”, for which the “IC50 of lipid peroxidation (TBARS formation)” value in assay [1] is given as “not statistically different”. In addition, the catalase activity entry in assay [2] (comparison of the 10150-Cl and SCN salts) is “lower catalase activity than 10150-Cl salt”. Besides, the “protection against hypochlorite-mediated epithelial cell injury” value in assay [5] is “synergistic effects”.
